Source: ChEMBL document CHEMBL3885881, “DrugMatrix”

Species: Rattus norvegicus
Experiment: DrugMatrix - Regimen: Daily Repeat
Type: toxicity, organism-based, Sprague-Dawley
Design: regimen Daily Repeat, gender Male, age 6-8 weeks
Conditions: in vivo, iv, vehicle 100 % SALINE; for ABSOLUTE BASOPHIL / ABSOLUTE EOSINOPHIL / ABSOLUTE LYMPHOCYTE / ABSOLUTE MONOCYTE / ABSOLUTE SEGMENTED NEUTROPHIL / BASOPHIL / EOSINOPHIL / ERYTHROCYTE COUNT / HEMATOCRIT / HEMOGLOBIN / LEUKOCYTE COUNT / LYMPHOCYTE / MEAN CORPUSCULAR HEMOGLOBIN / MEAN CORPUSCULAR HEMOGLOBIN CONCENTRATION / MEAN CORPUSCULAR VOLUME / MONOCYTE / NEUTROPHIL / NUCLEATED RED BLOOD CELLS / PLATELET COUNT: tissue Blood; for ALANINE AMINOTRANSFERASE / ALBUMIN / ALKALINE PHOSPHATASE / ASPARTATE AMINOTRANSFERASE / BLOOD UREA NITROGEN / CARBON DIOXIDE / CHLORIDE / CHOLESTEROL / CREATINE PHOSPHOKINASE / CREATININE / GLUCOSE / LACTATE DEHYDROGENASE / LIPASE / PHOSPHORUS / POTASSIUM / SODIUM / TOTAL BILIRUBIN / TOTAL PROTEIN / URIC ACID: tissue Plasma
[1] = 5 mg/kg, 72 h, dose level Low, time 3 day
[2] = 5 mg/kg, 120 h, dose level Low, time 5 day
[3] = 30 mg/kg, 72 h, dose level High, time 3 day
[4] = 30 mg/kg, 120 h, dose level High, time 5 day

CNC1(c2ccccc2Cl)CCCCC1=O (configuration not stated) [KETAMINE]
ABSOLUTE BASOPHIL [1]: 0 CELLS/uL | ABSOLUTE EOSINOPHIL [1]: 51.33 CELLS/uL | ABSOLUTE LYMPHOCYTE [1]: 14067.33 CELLS/uL | ABSOLUTE MONOCYTE [1]: 102.67 CELLS/uL | ABSOLUTE SEGMENTED NEUTROPHIL [1]: 1912 CELLS/uL | BASOPHIL [1]: 0% | EOSINOPHIL [1]: 0.33% | ERYTHROCYTE COUNT [1]: 5.81 x10E6/uL | HEMATOCRIT [1]: 36.67% | HEMOGLOBIN [1]: 14.57 G/DL | LEUKOCYTE COUNT [1]: 16.13 x10E3/uL | LYMPHOCYTE [1]: 87% | MEAN CORPUSCULAR HEMOGLOBIN [1]: 25.1 pg | MEAN CORPUSCULAR HEMOGLOBIN CONCENTRATION [1]: 39.73 G/DL | MEAN CORPUSCULAR VOLUME [1]: 63.13 fL | MONOCYTE [1]: 0.67% | NEUTROPHIL [1]: 12% | NUCLEATED RED BLOOD CELLS [1]: 0 /100WBC | PLATELET COUNT [1]: 1224 x10E3/uL | ALANINE AMINOTRANSFERASE [1]: 65.67 u/L | ALBUMIN [1]: 4.37 G/DL | ALKALINE PHOSPHATASE [1]: 476.33 u/L | ASPARTATE AMINOTRANSFERASE [1]: 112 u/L | BLOOD UREA NITROGEN [1]: 16.67 mg/dL | CARBON DIOXIDE [1]: 24.33 mmol/L | CHLORIDE [1]: 102.33 MEQ/L | CHOLESTEROL [1]: 77 mg/dL | CREATINE PHOSPHOKINASE [1]: 659.67 u/L | CREATININE [1]: 0.19 mg/dL | GLUCOSE [1]: 151 mg/dL | LACTATE DEHYDROGENASE [1]: 281 u/L | LIPASE [1]: 8.67 u/L | PHOSPHORUS [1]: 13.03 mg/dL | POTASSIUM [1]: 6.82 MEQ/L | SODIUM [1]: 147.17 MEQ/L | TOTAL BILIRUBIN [1]: 0.2 mg/dL | TOTAL PROTEIN [1]: 6.1 G/DL | URIC ACID [1]: 1.77 mg/dL | ABSOLUTE BASOPHIL [2]: 0 CELLS/uL | ABSOLUTE EOSINOPHIL [2]: 0 CELLS/uL | ABSOLUTE LYMPHOCYTE [2]: 13962.33 CELLS/uL | ABSOLUTE MONOCYTE [2]: 431.67 CELLS/uL | ABSOLUTE SEGMENTED NEUTROPHIL [2]: 1839.33 CELLS/uL | BASOPHIL [2]: 0% | EOSINOPHIL [2]: 0% | ERYTHROCYTE COUNT [2]: 5.58 x10E6/uL | HEMATOCRIT [2]: 35.2% | HEMOGLOBIN [2]: 13.8 G/DL | LEUKOCYTE COUNT [2]: 16.23 x10E3/uL | LYMPHOCYTE [2]: 86% | MEAN CORPUSCULAR HEMOGLOBIN [2]: 24.77 pg | MEAN CORPUSCULAR HEMOGLOBIN CONCENTRATION [2]: 39.27 G/DL | MEAN CORPUSCULAR VOLUME [2]: 63.1 fL | MONOCYTE [2]: 2.67% | NEUTROPHIL [2]: 11.33% | NUCLEATED RED BLOOD CELLS [2]: 0 /100WBC | PLATELET COUNT [2]: 1165.33 x10E3/uL | ALANINE AMINOTRANSFERASE [2]: 62.33 u/L | ALBUMIN [2]: 4 G/DL | ALKALINE PHOSPHATASE [2]: 365.67 u/L | ASPARTATE AMINOTRANSFERASE [2]: 75.67 u/L | BLOOD UREA NITROGEN [2]: 16 mg/dL | CARBON DIOXIDE [2]: 23.67 mmol/L | CHLORIDE [2]: 103 MEQ/L | CHOLESTEROL [2]: 71 mg/dL | CREATINE PHOSPHOKINASE [2]: 194 u/L | CREATININE [2]: 0.14 mg/dL | GLUCOSE [2]: 158.33 mg/dL | LACTATE DEHYDROGENASE [2]: 81 u/L | LIPASE [2]: 8.33 u/L | PHOSPHORUS [2]: 11.53 mg/dL | POTASSIUM [2]: 6.9 MEQ/L | SODIUM [2]: 144.5 MEQ/L | TOTAL BILIRUBIN [2]: 0.2 mg/dL | TOTAL PROTEIN [2]: 6.03 G/DL | URIC ACID [2]: 1.43 mg/dL | ABSOLUTE BASOPHIL [3]: 0 CELLS/uL | ABSOLUTE EOSINOPHIL [3]: 0 CELLS/uL | ABSOLUTE LYMPHOCYTE [3]: 14382.67 CELLS/uL | ABSOLUTE MONOCYTE [3]: 155.33 CELLS/uL | ABSOLUTE SEGMENTED NEUTROPHIL [3]: 1995.33 CELLS/uL | BASOPHIL [3]: 0% | EOSINOPHIL [3]: 0% | ERYTHROCYTE COUNT [3]: 5.41 x10E6/uL | HEMATOCRIT [3]: 34.6% | HEMOGLOBIN [3]: 13.7 G/DL | LEUKOCYTE COUNT [3]: 16.53 x10E3/uL | LYMPHOCYTE [3]: 87.33% | MEAN CORPUSCULAR HEMOGLOBIN [3]: 25.3 pg | MEAN CORPUSCULAR HEMOGLOBIN CONCENTRATION [3]: 39.6 G/DL | MEAN CORPUSCULAR VOLUME [3]: 63.93 fL | MONOCYTE [3]: 1% | NEUTROPHIL [3]: 11.67% | NUCLEATED RED BLOOD CELLS [3]: 0 /100WBC | PLATELET COUNT [3]: 1095 x10E3/uL | ALANINE AMINOTRANSFERASE [3]: 62.67 u/L | ALBUMIN [3]: 4.23 G/DL | ALKALINE PHOSPHATASE [3]: 372.33 u/L | ASPARTATE AMINOTRANSFERASE [3]: 96.67 u/L | BLOOD UREA NITROGEN [3]: 17 mg/dL | CARBON DIOXIDE [3]: 19 mmol/L | CHLORIDE [3]: 101.67 MEQ/L | CHOLESTEROL [3]: 72.67 mg/dL | CREATINE PHOSPHOKINASE [3]: 366.67 u/L | CREATININE [3]: 0.23 mg/dL | GLUCOSE [3]: 202.67 mg/dL | LACTATE DEHYDROGENASE [3]: 284.33 u/L | LIPASE [3]: 10 u/L | PHOSPHORUS [3]: 13.57 mg/dL | POTASSIUM [3]: 5.66 MEQ/L | SODIUM [3]: 144.1 MEQ/L | TOTAL BILIRUBIN [3]: 0.2 mg/dL | TOTAL PROTEIN [3]: 6 G/DL | URIC ACID [3]: 2.03 mg/dL | ABSOLUTE BASOPHIL [4]: 0 CELLS/uL | ABSOLUTE EOSINOPHIL [4]: 79.33 CELLS/uL | ABSOLUTE LYMPHOCYTE [4]: 16271.33 CELLS/uL | ABSOLUTE MONOCYTE [4]: 278 CELLS/uL | ABSOLUTE SEGMENTED NEUTROPHIL [4]: 1271.33 CELLS/uL | BASOPHIL [4]: 0% | EOSINOPHIL [4]: 0.33% | ERYTHROCYTE COUNT [4]: 5.66 x10E6/uL | HEMATOCRIT [4]: 35.67% | HEMOGLOBIN [4]: 14 G/DL | LEUKOCYTE COUNT [4]: 17.9 x10E3/uL | LYMPHOCYTE [4]: 92% | MEAN CORPUSCULAR HEMOGLOBIN [4]: 24.8 pg | MEAN CORPUSCULAR HEMOGLOBIN CONCENTRATION [4]: 39.27 G/DL | MEAN CORPUSCULAR VOLUME [4]: 63.03 fL | MONOCYTE [4]: 1.33% | NEUTROPHIL [4]: 6.33% | NUCLEATED RED BLOOD CELLS [4]: 0 /100WBC | PLATELET COUNT [4]: 1154.33 x10E3/uL | ALANINE AMINOTRANSFERASE [4]: 51 u/L | ALBUMIN [4]: 4.2 G/DL | ALKALINE PHOSPHATASE [4]: 328.67 u/L | ASPARTATE AMINOTRANSFERASE [4]: 76.67 u/L | BLOOD UREA NITROGEN [4]: 16.33 mg/dL | CARBON DIOXIDE [4]: 22.67 mmol/L | CHLORIDE [4]: 105 MEQ/L | CHOLESTEROL [4]: 69.67 mg/dL | CREATINE PHOSPHOKINASE [4]: 264.33 u/L | CREATININE [4]: 0.2 mg/dL | GLUCOSE [4]: 179.33 mg/dL | LACTATE DEHYDROGENASE [4]: 119.67 u/L | LIPASE [4]: 8.67 u/L | PHOSPHORUS [4]: 12.4 mg/dL | POTASSIUM [4]: 6.35 MEQ/L | SODIUM [4]: 146.23 MEQ/L | TOTAL BILIRUBIN [4]: 0.17 mg/dL | TOTAL PROTEIN [4]: 6.1 G/DL | URIC ACID [4]: 1.3 mg/dL
